# Reference: US20050009862A1, “Method for promoting uninterrupted sleep by administration of trospium chloride” (priority 2003, published 2005)
# Legend:
# Type in all cases: in vivo, human
# [1] = system: patients with overactive bladder (OAB) associated with predominant urge incontinence; assay: Same Phase III study, safety (adverse events, clinical laboratory tests, vital signs, ECG)
# Procedure: A multicenter, double-blind, placebo-controlled study of 20 mg, twice-daily trospium chloride for 12 weeks followed by a 9-month, open-label treatment phase in patients with overactive bladder.
# Multicenter, parallel, randomized, double-blind, placebo-controlled trial of patients with overactive bladder (OAB) associated with predominant urge incontinence. Patients who were currently receiving OAB drug therapy were to begin treatment after a 3-week washout period that included the 7-day patient urinary diary collection. Patients who were not currently receiving OAB drug therapy (i.e., naive patients) could begin treatment with study medication following their 7-day patient urinary diary collection and continued for a total double-blind treatment duration of 12 weeks.
# Patients were randomized on a 1:1 basis to receive either placebo or trospium chloride 20 mg twice daily during the double-blind treatment segment of the study. The randomization schedule for patients was stratified by the mean baseline number of micturitions (i.e., toilet voids) per 24 hours (collected via the patient urinary diary over 7 days); specifically, using the stratified categories of 10 to 15, 16 to 20, and ≧21 mean micturitions per 24 hours. Patients were periodically evaluated during the 12-week treatment segment and were to return on Day 84 for the Week 12 assessments.
# Adverse events (AEs), clinical laboratory tests, vital signs, and 12-lead electrocardiograms (ECGs).
# The Fisher's Exact test was used to analyze adverse events. Other categorical data were analyzed using the Cochran-Mantel-Haenszel (CMH) procedure with center as the stratification variable. For all continuous data analyses, an analysis of variance (ANOVA) model with center and treatment was used.
# [2] = system: People complaining of frequent wakefulness throughout the night due to repeated urges to urinate; assay: Example 3: single dose before sleeping in people with frequent wakefulness at night; settings: 20 mg given 1.0 h before sleeping
# Procedure: People complaining of frequent wakefulness throughout the night due to repeated urges to urinate are given 20 mg of trospium chloride 1.0 h before sleeping.
# [3] = system: patients with overactive bladder (OAB) associated with predominant urge incontinence; assay: Phase III multicenter, double-blind, placebo-controlled 12-week study of trospium chloride 20 mg twice daily (#IP631-003), efficacy from patient urinary diary
# From the text: A multi-center, parallel, randomized, double-blind, placebo controlled study (#IP631-003) was based on data collected as a result of administering the IUSS during a 12-week^1-clinical trial of patients with overactive bladder (OAB) associated with predominant urge incontinence—for trospium chloride in the United States. For full details on the clinical study ethics, administration, objectives and design, selection of study population, treatments, efficacy and safety variables and statistical methodology please refer to the clinical study protocol #IP631-003 and the ‘Final Report for the Double-Blind Phase’ prepared by Quintiles Inc.
# The IUSS (Appendix A) asks patients about their ‘degree of urgency’ of their toilet voids (as meant to describe the urge to urinate). Patients are asked to rate the degree of urgency they felt before reaching the toilet for a toilet void (defined in the study as urination in the toilet). The instructions state that “Sometimes you may feel a very strong urge to urinate, and at other times, you may feel a milder urge prior to the onset of a toilet void. Rate this feeling by circling 0, 1, 2 or 3.” The instructions specify the following four response options: • 0: None—no urgency; • 1: Mild—awareness of urgency, but is easily tolerated and you can continue with your usual activity or tasks; • 2: Moderate—enough urgency discomfort that it interferes with or shortens your usual activity or tasks; and • 3: Severe—extreme urgency discomfort that abruptly stops all activity or tasks.
# This single-item Urgency Severity Scale was contained within a ‘Patient Urinary Diary’, which was completed by all patients during four discrete one-week periods in the course of the 12-week double-blind trial (baseline and study treatment weeks 1, 4 and 12). During each of the one-week data collection periods, patients completed the diary every day for a total of seven days. […] In the diary, an urge leak was defined as a leakage due to a very strong need or desire to urinate. A stress leak was defined as being a result of coughing, sneezing, standing, laughing, exercise, or other physical activity/movement exerting pressure on the bladder. In addition, during the last two days of the 7-day diary collection period (days 6 and 7), patients collected and measured all urine volume for each and every toilet void and recorded this within the diary.
# The study population for the clinical trial was 523 patients who received at least one dose of the study medication. Patients who entered the trial were required to have overactive bladder, defined as: • Urinary frequency of ≧70 toilet voids per 7 days (i.e. ≧10 toilet voids per day) as recorded in a patient urinary diary during a “washout” period; • Symptoms of urgency (i.e. sudden desire to toilet void); • Pure urge or mixed urinary incontinence with predominant urge incontinence.
# Trospium chloride is an anticholinergic agent with predominantly peripheral antimuscarinic activity. Its mechanism enables the detrusor to relax, inhibiting evacuation of the bladder. Patients were randomized on a 1:1 basis to receive either placebo or trospium chloride. Patients receiving trospium chloride took one 20-mg tablet twice daily. Those receiving placebo took one placebo tablet twice daily. The identity of the study medication was blinded.
# Patients completed a patient diary on a daily basis during four one-week data collection windows: baseline, week 1, week 4 and week 12. The diary collected the following patient-reported outcome data: • IUSS; • Number of toilet voids; • Number of urge incontinence episodes, and separately, stress incontinence episodes; • Volume voided (mL), collected on the last 2 of 7 days of the 7 day diary.
# A multicenter, double-blind, placebo-controlled study of 20 mg, twice-daily trospium chloride for 12 weeks followed by a 9-month, open-label treatment phase in patients with overactive bladder. […]
# [4] = system: Patients with overactive bladder associated with predominant urge incontinence and complaining of frequent wakefulness throughout the night; assay: Example 2: single dose before sleeping in overactive bladder patients with frequent wakefulness at night; settings: 20 mg given 0.5 h before sleeping
# Procedure: Patients with overactive bladder associated with predominant urge incontinence and complaining of frequent wakefulness throughout the night due to repeated urges to urinate are given 20 mg of trospium chloride 0.5 h before sleeping.
compound,measurement,setting,value
"O=C(O[C@H]1C[C@H]2CC[C@@H](C1)[N+]21CCCC1)C(O)(c1ccccc1)c1ccccc1 [Trospium, 3-alpha-benziloyloxynortropane-8-spiro-1′-pyrrolidinium chloride]",Overall safety and tolerability,"[1]; 20 mg twice daily, 12 weeks",safe and generally well tolerated
same,Patients with QTcF intervals >500 msec that had increased by >60 msec from baseline,"[1]; 1 patient in each treatment group, no clinical signs, resolved at endpoint",1 patient
same,Patients in whom study medication was permanently discontinued due to TEAEs (percent),"[1]; 12-week double-blind phase, 20 mg twice daily, placebo 5.7%",8.8%
same,Patients in whom study medication was permanently discontinued due to TEAEs (number),"[1]; 12-week double-blind phase, 20 mg twice daily, placebo 15 patients",23 patients
same,Patients who experienced an adverse event leading to death,"[1]; person, hemorrhagic stroke on Day 57, assessed as remotely related to study medication",1 patient
same,Most common TEAEs that led to discontinuation of study medication,[1]; trospium group,"dry mouth, constipation, abdominal pain NOS, and urinary retention"
same,Sleep during the normal sleep period,[2],uninterrupted sleep throughout their normal sleep periods
same,Mean change from baseline: Number of toilet voids/24 hours,"[3]; Week 12, 20 mg oral tablet twice daily, N = 253, ITT:LOCF, placebo −1.29, P <0.0001",−2.37
same,Mean change from baseline: Volume voided (mL) per toilet void/24 hours,"[3]; Week 12, 20 mg twice daily, N = 248, ITT:LOCF, placebo 7.72, P <0.0001",32.14 mL
same,"Mean change from baseline: Urgency severity score associated with toilet voids (IUSS, 0-3)","[3]; Week 12, 20 mg twice daily, N = 253, ITT:LOCF, placebo −0.04, P 0.0001",−0.22
same,Mean change from baseline: Number of nocturnal toilet voids/24 hours,"[3]; Week 12, 20 mg twice daily, N = 253, ITT:LOCF, placebo −0.29, P 0.0255",−0.47
same,Mean change from baseline: Number of urge incontinence episodes/24 hours,"[3]; Week 12, 20 mg twice daily, N = 253, ITT:LOCF, placebo −1.98, P 0.0118 (ranked ANOVA)",−2.20
same,Change in average urgency severity per 24 hours compared with placebo,"[3]; at Weeks 1, 4, and 12",significant decrease
same,Change in average volume voided compared with placebo,"[3]; at Weeks 1, 4, and 12",statistically significant increase
same,Change in average number of toilet voids per 24 hours compared with placebo,"[3]; at Weeks 1, 4, and 12, improvement = decrease",statistically significant (p≦0.05) improvement
same,Change in average number of urge incontinence episodes per 24 hours compared with placebo,"[3]; at Weeks 4 and 12, improvement = decrease",statistically significant (p≦0.05) improvement
same,"Onset of action during Week 1 for effect on toilet voids, urge incontinence episodes, and total micturitions per 24 hours",[3]; consistently significant effects by Day 7,superior when compared with placebo
same,Average reduction in mean number of urgency episodes (IUSS severity >0),"[3]; over the 12-week trial, baseline mean 11.29, placebo reduction 1.08, p<0.01",2.30 urgency episodes
same,Sleep during the normal sleep period,[4],uninterrupted sleep throughout their normal sleep periods
